Here are results for four compounds from patent publication US5008273A, “Amino acid derivatives and their pharmaceutical use” (Boehringer Ingelheim GmbH, priority 1985, dated 1991).

One may read the IC50 as the concentration that gives 50% inhibition. A high value points to lower potency.

This assay concerns the target angiotensin converting enzyme (Homo sapiens, UniProt P12821). Put plainly: inhibition of the isolated angiotensin converting enzyme. In kind it is biochemical. An excerpt:
The following values were obtained for the inhibition of the isolated angiotensin converting enzyme: […]

Sequence of angiotensin converting enzyme (P12821 30-1306, species assumed): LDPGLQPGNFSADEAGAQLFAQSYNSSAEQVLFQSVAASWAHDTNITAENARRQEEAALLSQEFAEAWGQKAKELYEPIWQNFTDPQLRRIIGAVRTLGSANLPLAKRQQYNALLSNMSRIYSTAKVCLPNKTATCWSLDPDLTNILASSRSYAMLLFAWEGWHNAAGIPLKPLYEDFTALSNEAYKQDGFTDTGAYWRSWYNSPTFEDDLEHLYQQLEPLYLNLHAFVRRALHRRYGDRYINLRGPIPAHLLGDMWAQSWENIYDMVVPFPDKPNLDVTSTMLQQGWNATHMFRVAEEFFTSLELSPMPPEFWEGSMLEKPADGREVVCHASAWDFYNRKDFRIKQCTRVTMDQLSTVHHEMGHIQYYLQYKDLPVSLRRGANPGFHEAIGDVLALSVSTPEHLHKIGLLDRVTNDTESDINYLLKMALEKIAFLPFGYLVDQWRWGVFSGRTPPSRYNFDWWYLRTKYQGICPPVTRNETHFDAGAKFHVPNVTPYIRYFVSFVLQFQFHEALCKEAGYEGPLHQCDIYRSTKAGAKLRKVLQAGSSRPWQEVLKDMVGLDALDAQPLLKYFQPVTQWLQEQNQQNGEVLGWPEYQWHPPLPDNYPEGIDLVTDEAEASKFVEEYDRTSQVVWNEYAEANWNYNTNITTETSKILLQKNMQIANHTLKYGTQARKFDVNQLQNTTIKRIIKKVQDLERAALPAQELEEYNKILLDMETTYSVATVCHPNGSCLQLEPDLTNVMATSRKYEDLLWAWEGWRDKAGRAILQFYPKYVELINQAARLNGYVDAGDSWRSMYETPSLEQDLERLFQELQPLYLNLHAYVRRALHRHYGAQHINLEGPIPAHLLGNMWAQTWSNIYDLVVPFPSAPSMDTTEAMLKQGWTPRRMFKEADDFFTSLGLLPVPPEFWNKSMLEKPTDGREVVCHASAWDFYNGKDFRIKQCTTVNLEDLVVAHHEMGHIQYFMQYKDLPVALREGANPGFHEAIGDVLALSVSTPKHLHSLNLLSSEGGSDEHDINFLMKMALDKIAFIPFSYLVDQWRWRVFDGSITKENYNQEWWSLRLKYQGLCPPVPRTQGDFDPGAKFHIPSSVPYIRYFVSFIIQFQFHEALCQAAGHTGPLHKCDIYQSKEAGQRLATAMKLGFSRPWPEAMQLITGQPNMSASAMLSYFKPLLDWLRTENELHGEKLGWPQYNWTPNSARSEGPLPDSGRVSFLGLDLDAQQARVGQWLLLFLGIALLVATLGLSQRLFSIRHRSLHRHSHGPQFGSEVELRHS

For `NCCCC[C@H](N[C@@H](CCc1ccccc1)C(=O)O)C(=O)N1CCc2sccc2[C@H]1C(=O)O` [Example 2, N-[N-(1(S)-Carboxy-3-phenylpropyl)-L-lysyl]4,5,6,7-tetrahydro-thieno[3,2-c]pyridine-4(S)-carboxylic acid], the IC50 was found to be 3.5 nM.
For `NCCCC[C@H](N[C@@H](CCc1ccccc1)C(=O)O)C(=O)N1CCc2ccsc2[C@@H]1C(=O)O` [Example 4, N-[N-(1(S)-Carboxy-3-phenylpropyl)-L-lysyl]4,5,6,7-tetrahydro-thieno[2,3-c]pyridine-7(S)-carboxylic acid], the IC50 stood at 18 nM.
In the case of `NCCCC[C@H](N[C@@H](CCc1ccccc1)C(=O)O)C(=O)N1Cc2sccc2C[C@H]1C(=O)O` [Example 7, N-[N-(1(S)-Carboxy-3-phenylpropyl)-L-lysyl]-4,5,6,7-tetrahydro-thieno[2,3-c]pyridine-5(S)-carboxylic acid], half-maximal inhibition (IC50) was put at 14 nM.
With `NCCCC[C@H](N[C@@H](CCc1ccccc1)C(=O)O)C(=O)N1Cc2ccsc2C[C@H]1C(=O)O` [Example 10, N-[N-(1(S)-Carboxy-3-phenylpropyl)-L-lysyl]-4,5,6,7-tetrahydro-thieno[3,2-c]pyridine-6(S)-carboxylic acid] the figure was 2.9 nM.
